ChEMBL document CHEMBL5725466, “N-cyanomethylamides as inhibitors of janus kinase” (2017)

How the values were obtained:
[1] = biological target: Tyrosine-protein kinase JAK1 (Homo sapiens, UniProt P23458); assay: (§1) In Vitro Assay: NCEs were screened using in vitro JAK (1, 2 and 3) kinase assay on ADP Glo platform (Promega). Fixed amount of recombinant purified human JAK (25 ng of JAK1 and 10 ng of JAK2 and JAK3 per reaction, from Life Technologies Ltd) were incubated with increasing concentration of NCEs in 1× kinase reaction buffer (40 mM Tris-Cl, pH7.5, 20 mM MgCl2, 0.1 mg/ml BSA and 50 μM DTT). Enzymatic reaction was initiated by adding a substrate cocktail containing 50 μM of ATP (final concentration) and 5 μg for JAK1 and 2.5 μg for JAK2 and JAK3 of polyGln4Tyr1 (Signal Chem) in total 25 μl of reaction in 96 well plate. The reaction was incubated at room temperature for 1 hr.After 1 hr of incubation equal volume (25 μl per reaction) of ADP Glo was added and incubated at room temperature for 40 min.This was followed by addition of kinase detection reagent (50 μl per reaction) and incubation at room temperature for 30 min. Finally, plate was read for luminescence at an integration time of 500 millisecond per well.
[2] = biological target: Tyrosine-protein kinase JAK2 (Homo sapiens, UniProt O60674); assay: as §1
[3] = biological target: T1, Tyrosine-protein kinase JAK3 (Homo sapiens, UniProt P52333); assay: as §1
T1 sequence (P52333 whole entry): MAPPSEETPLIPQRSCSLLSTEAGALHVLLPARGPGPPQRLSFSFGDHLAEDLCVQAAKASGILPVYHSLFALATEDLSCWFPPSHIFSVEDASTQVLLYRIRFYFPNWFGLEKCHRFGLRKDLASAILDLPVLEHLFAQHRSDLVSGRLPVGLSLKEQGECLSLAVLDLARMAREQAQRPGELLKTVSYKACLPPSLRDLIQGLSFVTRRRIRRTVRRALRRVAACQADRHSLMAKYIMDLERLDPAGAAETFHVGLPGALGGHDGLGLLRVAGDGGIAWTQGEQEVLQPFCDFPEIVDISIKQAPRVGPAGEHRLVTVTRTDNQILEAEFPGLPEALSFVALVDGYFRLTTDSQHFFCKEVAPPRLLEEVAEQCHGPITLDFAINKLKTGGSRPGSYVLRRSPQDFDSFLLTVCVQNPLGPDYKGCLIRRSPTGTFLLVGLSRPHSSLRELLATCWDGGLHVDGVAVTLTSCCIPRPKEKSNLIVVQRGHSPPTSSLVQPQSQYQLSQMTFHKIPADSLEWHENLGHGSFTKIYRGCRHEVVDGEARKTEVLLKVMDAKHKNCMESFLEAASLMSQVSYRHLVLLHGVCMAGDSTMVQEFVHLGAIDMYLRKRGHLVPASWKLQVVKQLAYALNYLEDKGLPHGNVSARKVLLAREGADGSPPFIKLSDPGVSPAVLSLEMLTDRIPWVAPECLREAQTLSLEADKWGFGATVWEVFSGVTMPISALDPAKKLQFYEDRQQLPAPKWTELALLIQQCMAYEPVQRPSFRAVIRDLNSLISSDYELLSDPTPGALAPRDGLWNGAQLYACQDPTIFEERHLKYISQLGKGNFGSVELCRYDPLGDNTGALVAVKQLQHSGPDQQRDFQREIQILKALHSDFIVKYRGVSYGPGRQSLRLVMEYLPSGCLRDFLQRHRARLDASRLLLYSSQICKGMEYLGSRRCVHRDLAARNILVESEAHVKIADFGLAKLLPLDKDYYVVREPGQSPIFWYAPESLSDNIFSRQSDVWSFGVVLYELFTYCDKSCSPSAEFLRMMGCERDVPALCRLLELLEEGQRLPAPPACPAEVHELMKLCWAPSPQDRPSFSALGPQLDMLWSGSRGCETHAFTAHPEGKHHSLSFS

Tyrosine-protein kinase JAK2, sequence (O60674 whole entry): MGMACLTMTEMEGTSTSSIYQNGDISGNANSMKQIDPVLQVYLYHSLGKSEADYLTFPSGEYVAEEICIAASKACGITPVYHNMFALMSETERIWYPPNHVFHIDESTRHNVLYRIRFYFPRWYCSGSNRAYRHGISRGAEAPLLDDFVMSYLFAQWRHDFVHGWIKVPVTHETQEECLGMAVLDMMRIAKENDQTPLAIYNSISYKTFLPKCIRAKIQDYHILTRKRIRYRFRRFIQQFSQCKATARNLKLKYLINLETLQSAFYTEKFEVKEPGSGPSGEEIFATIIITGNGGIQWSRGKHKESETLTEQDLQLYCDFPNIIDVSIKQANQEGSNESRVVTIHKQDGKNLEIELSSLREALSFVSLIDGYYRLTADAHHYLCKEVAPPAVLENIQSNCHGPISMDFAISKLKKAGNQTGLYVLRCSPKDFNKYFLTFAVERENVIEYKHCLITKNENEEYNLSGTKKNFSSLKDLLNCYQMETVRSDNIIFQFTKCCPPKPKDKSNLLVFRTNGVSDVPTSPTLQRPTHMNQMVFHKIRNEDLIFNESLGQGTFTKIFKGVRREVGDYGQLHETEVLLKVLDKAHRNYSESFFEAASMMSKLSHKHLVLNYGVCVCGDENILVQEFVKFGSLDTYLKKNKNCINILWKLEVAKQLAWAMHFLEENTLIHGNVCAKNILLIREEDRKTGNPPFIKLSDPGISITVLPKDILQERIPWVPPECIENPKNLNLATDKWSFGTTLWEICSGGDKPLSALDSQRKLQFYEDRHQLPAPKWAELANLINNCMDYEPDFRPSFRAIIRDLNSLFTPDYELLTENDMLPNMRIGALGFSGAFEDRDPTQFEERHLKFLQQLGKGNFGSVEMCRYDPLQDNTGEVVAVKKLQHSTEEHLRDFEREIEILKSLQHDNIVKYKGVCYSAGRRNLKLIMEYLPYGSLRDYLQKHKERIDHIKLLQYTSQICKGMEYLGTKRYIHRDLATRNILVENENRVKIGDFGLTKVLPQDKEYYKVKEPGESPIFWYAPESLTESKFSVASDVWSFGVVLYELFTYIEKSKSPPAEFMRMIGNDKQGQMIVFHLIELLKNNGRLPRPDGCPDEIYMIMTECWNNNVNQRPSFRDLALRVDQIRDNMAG
Tyrosine-protein kinase JAK1, sequence (P23458 whole entry): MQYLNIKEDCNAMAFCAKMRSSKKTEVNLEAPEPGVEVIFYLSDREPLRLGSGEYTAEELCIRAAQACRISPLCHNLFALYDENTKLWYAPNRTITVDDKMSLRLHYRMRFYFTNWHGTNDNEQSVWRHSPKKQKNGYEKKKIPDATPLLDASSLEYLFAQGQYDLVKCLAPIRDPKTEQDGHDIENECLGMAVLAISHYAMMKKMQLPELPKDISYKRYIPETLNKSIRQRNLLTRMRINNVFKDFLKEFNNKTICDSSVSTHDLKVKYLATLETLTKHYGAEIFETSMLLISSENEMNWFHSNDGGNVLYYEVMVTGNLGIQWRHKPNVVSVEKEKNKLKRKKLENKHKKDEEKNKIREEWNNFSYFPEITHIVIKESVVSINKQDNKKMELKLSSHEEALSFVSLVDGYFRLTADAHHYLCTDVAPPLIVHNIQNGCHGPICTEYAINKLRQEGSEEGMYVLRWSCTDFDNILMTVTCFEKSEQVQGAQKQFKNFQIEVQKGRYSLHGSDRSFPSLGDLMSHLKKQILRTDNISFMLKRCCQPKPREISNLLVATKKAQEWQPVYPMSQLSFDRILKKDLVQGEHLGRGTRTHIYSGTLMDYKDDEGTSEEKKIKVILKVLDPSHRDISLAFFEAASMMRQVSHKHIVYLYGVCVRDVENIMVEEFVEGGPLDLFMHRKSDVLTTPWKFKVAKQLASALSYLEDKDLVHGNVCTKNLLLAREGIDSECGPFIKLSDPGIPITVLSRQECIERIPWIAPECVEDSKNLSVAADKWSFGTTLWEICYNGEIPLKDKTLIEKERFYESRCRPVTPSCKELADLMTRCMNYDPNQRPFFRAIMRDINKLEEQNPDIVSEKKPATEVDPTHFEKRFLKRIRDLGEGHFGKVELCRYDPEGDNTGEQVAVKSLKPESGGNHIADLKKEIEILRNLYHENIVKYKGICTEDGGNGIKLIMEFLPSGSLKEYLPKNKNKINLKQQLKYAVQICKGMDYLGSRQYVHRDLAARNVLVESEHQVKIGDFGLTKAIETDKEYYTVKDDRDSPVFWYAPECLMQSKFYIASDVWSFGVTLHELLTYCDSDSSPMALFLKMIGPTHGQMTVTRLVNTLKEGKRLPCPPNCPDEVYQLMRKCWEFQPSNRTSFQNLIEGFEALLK

Row | Structure (SMILES) | IC50 [1] [nM] | IC50 [2] [nM] | IC50 [3] [nM]
1 | N#CCNC(=O)c1ccc(-c2ccnc(Nc3ccc(N4CCC(N5CCOCC5)CC4)cc3)n2)cc1 | 11.7 | 6.6 | 62.3
2 | N#CCNC(=O)c1ccc(-c2nc(Nc3ccc(N4CCC(N5CCOCC5)CC4)cc3)ncc2F)cc1 | 6.7 | 4.9 | 16.6
3 | N#CCNC(=O)c1ccc(-c2ccnc(Nc3ccc(N4CCC(C5=NCCN5)CC4)cc3)n2)cc1 | 13 | 20 | 124
